Source: patent publication US10463644B2, “Uses of sesquiterpene lactone compounds and their derivatives in drugs preparation” (ACCENDATECH, priority 2013, dated 2019)
Where two headings read alike, the source gives them in different places.

Key:
[1] = tested on: PGE2 secreted by synoviocyte; test: Content of PGE2 in culture supernatant of synoviocyte of RA model rats given test compound; type: in vivo; conditions: rat RA model, dose 30 mg/kg.2d; normal control 8.34 ± 1.29, NaCl 32.44 ± 10.32
Summary of the method: (§1)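 Content of secreted TNF-α, PGE2 and IL-1β measured in supernatants of synoviocytes cultured from RA model rats. Animals dosed at 30 mg/kg.2d; normal control and NaCl groups included.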

cancer cells = test: Survival rate of cancer cells after test compound is added (flow cytometry, Annexin V-FITC/PI, clinical specimen); type: cell-based, patient; conditions: Homo sapiens, 18 h, read-out: Survival rate (%) All cells (Stem cells and ordinary cells)
Summary of the method: (§2)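 Mononuclear cells from fresh or cryopreserved clinical samples, isolated by Ficoll gradient and held in serum-free IMDM (1×10^6/mL), received compound for 18 h. After labelling with marker antibodies (CD34+CD38+ for AML), Annexin V-FITC and PI staining was analysed by flow cytometry.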

[2] = tested on: IL-1β secreted by synoviocyte; test: Content of IL-1β in culture supernatant of synoviocyte of RA model rats given test compound; type: in vivo; conditions: rat RA model, dose 30 mg/kg.2d; normal control 0.16 ± 0.034, NaCl 0.49 ± 0.136
Summary of the method: as §1

[3] = tested on: TNF-α secreted by synoviocyte; test: Content of TNF-α in culture supernatant of synoviocyte of RA model rats given test compound; type: in vivo; conditions: rat RA model, dose 30 mg/kg.2d; normal control 0.38 ± 0.027, NaCl 0.74 ± 0.098
Summary of the method: as §1

cancer stem cells = test: Survival rate of cancer stem cells after test compound is added (flow cytometry, Annexin V-FITC/PI, clinical specimen); type: cell-based, patient; conditions: Homo sapiens, 18 h
Summary of the method: as §2

[4] = Head and neck squamous cell carcinomas

In the case of `[2H][C@@]1(CN(C)C)C(=O)O[C@@H]2[C@@H]3[C@@H](CCC34CC4)C3(CC[C@H]21)CC3` [Compound 46], the “Content of PGE2 in culture supernatant of synoviocyte (x ± s)” value [1] is reported as 24.74 ± 2.64 ng/mL, the viability at 10 µM (cancer cells; AML) is reported as 88% and the viability at 20 µM (cancer cells; AML) is reported as 85%. It also gave a viability at 10 µM (cancer cells; Brain glioma) of 91%, a viability at 20 µM (cancer cells; Brain glioma) of 89% and a viability at 10 µM (cancer cells; Brain tumor) of 91%. For the same compound, the viability at 20 µM (cancer cells; Brain tumor) was 89%, the viability at 10 µM (cancer cells; Breast cancer) was 89% and the viability at 20 µM (cancer cells; Breast cancer) was 86%. It also gave a viability at 10 µM (cancer cells; CLL) of 88%, a viability at 20 µM (cancer cells; CLL) of 89% and a viability at 10 µM (cancer cells; CML) of 93%. The viability at 20 µM (cancer cells; CML) was 86%, the viability at 10 µM (cancer cells; Children hepatoblastoma) was 91% and the viability at 20 µM (cancer cells; Children hepatoblastoma) was 88%. The viability at 10 µM (cancer cells; Colon adenocarcinoma) was 89%, the viability at 20 µM (cancer cells; Colon adenocarcinoma) was 86% and the viability at 10 µM (cancer cells; Colorectal cancer) was 93%. It also gave a viability at 20 µM (cancer cells; Colorectal cancer) of 92%, a viability at 10 µM (cancer cells; Gastric cancer) of 94% and a viability at 20 µM (cancer cells; Gastric cancer) of 87%. For the same compound, the viability at 10 µM (cancer cells; Gastrointestinal tumor) was 89%, the viability at 20 µM (cancer cells; Gastrointestinal tumor) was 86% and the viability at 10 µM (cancer cells; Glioma) was 91%. The viability at 20 µM (cancer cells; Glioma) was 84%, the viability at 10 µM (cancer cells; [4]) was 91% and the viability at 20 µM (cancer cells; [4]) was 88%. For the same compound, the viability at 10 µM (cancer cells; Laryngeal cancer) was 87%, the viability at 20 µM (cancer cells; Laryngeal cancer) was 83% and the viability at 10 µM (cancer cells; Liver cancer) was 87%. For the same compound, the viability at 20 µM (cancer cells; Liver cancer) was 83%, the viability at 10 µM (cancer cells; Lung adenocarcinoma) was 93% and the viability at 20 µM (cancer cells; Lung adenocarcinoma) was 86%. It also gave a viability at 10 µM (cancer cells; Lung cancer) of 88%, a viability at 20 µM (cancer cells; Lung cancer) of 89% and a viability at 10 µM (cancer cells; Malignant melanoma) of 92%. It also gave a viability at 20 µM (cancer cells; Malignant melanoma) of 89%, a viability at 10 µM (cancer cells; Nasopharynx cancer) of 88% and a viability at 20 µM (cancer cells; Nasopharynx cancer) of 81%. The viability at 10 µM (cancer cells; Ovarian cancer) was 88%, the viability at 20 µM (cancer cells; Ovarian cancer) was 81% and the viability at 10 µM (cancer cells; Pancreatic cancer) was 88%. For the same compound, the viability at 20 µM (cancer cells; Pancreatic cancer) was 85%, the viability at 10 µM (cancer cells; Prostate cancer) was 94% and the viability at 20 µM (cancer cells; Prostate cancer) was 87%. For the same compound, the viability at 10 µM (cancer cells; Retinoblastoma) was 91%, the viability at 20 µM (cancer cells; Retinoblastoma) was 87% and the viability at 10 µM (cancer cells; Skin cancer) was 92%. For the same compound, the viability at 20 µM (cancer cells; Skin cancer) was 89%, the “Content of IL-1β in culture supernatant of synoviocyte (x ± s)” value [2] was 0.36 ± 0.067 ng/mL and the “Content of TNF-α in culture supernatant of synoviocyte (x ± s)” value [3] was 0.56 ± 0.034 ng/mL. The viability at 10 µM (cancer stem cells; AML) was 82%, the viability at 20 µM (cancer stem cells; AML) was 74% and the viability at 10 µM (cancer stem cells; Brain glioma) was 88%. The viability at 20 µM (cancer stem cells; Brain glioma) was 81%, the viability at 10 µM (cancer stem cells; Brain tumor) was 88% and the viability at 20 µM (cancer stem cells; Brain tumor) was 81%. The viability at 10 µM (cancer stem cells; Breast cancer) was 82%, the viability at 20 µM (cancer stem cells; Breast cancer) was 76% and the viability at 10 µM (cancer stem cells; CLL) was 82%. For the same compound, the viability at 20 µM (cancer stem cells; CLL) was 76%, the viability at 10 µM (cancer stem cells; CML) was 85% and the viability at 20 µM (cancer stem cells; CML) was 79%. It also gave a viability at 10 µM (cancer stem cells; Children hepatoblastoma) of 84%, a viability at 20 µM (cancer stem cells; Children hepatoblastoma) of 78% and a viability at 10 µM (cancer stem cells; Colon adenocarcinoma) of 84%. For the same compound, the viability at 20 µM (cancer stem cells; Colon adenocarcinoma) was 74%, the viability at 10 µM (cancer stem cells; Colorectal cancer) was 86% and the viability at 20 µM (cancer stem cells; Colorectal cancer) was 78%. For the same compound, the viability at 10 µM (cancer stem cells; Gastric cancer) was 87%, the viability at 20 µM (cancer stem cells; Gastric cancer) was 76% and the viability at 10 µM (cancer stem cells; Gastrointestinal tumor) was 82%. For the same compound, the viability at 20 µM (cancer stem cells; Gastrointestinal tumor) was 76%, the viability at 10 µM (cancer stem cells; Glioma) was 87% and the viability at 20 µM (cancer stem cells; Glioma) was 75%. The viability at 10 µM (cancer stem cells; [4]) was 84%, the viability at 20 µM (cancer stem cells; [4]) was 78% and the viability at 10 µM (cancer stem cells; Laryngeal cancer) was 81%. It also gave a viability at 20 µM (cancer stem cells; Laryngeal cancer) of 75%, a viability at 10 µM (cancer stem cells; Liver cancer) of 81% and a viability at 20 µM (cancer stem cells; Liver cancer) of 75%. For the same compound, the viability at 10 µM (cancer stem cells; Lung adenocarcinoma) was 85%, the viability at 20 µM (cancer stem cells; Lung adenocarcinoma) was 79% and the viability at 10 µM (cancer stem cells; Lung cancer) was 82%. The viability at 20 µM (cancer stem cells; Lung cancer) was 76%, the viability at 10 µM (cancer stem cells; Malignant melanoma) was 85% and the viability at 20 µM (cancer stem cells; Malignant melanoma) was 77%. For the same compound, the viability at 10 µM (cancer stem cells; Nasopharynx cancer) was 79%, the viability at 20 µM (cancer stem cells; Nasopharynx cancer) was 72% and the viability at 10 µM (cancer stem cells; Ovarian cancer) was 79%. The viability at 20 µM (cancer stem cells; Ovarian cancer) was 72%, the viability at 10 µM (cancer stem cells; Pancreatic cancer) was 85% and the viability at 20 µM (cancer stem cells; Pancreatic cancer) was 79%. It also gave a viability at 10 µM (cancer stem cells; Prostate cancer) of 87%, a viability at 20 µM (cancer stem cells; Prostate cancer) of 76% and a viability at 10 µM (cancer stem cells; Retinoblastoma) of 82%. For the same compound, the viability at 20 µM (cancer stem cells; Retinoblastoma) was 73%, the viability at 10 µM (cancer stem cells; Skin cancer) was 85% and the viability at 20 µM (cancer stem cells; Skin cancer) was 77%.
